Source: patent US4112228A, “7-(D-α-Hydroxy-2-arylacetamido)-3-(2-carboxyalkyl-2,3-dihydro-s-tri azolo-[4,3-b]pyridazin-3-on-6-ylthiomethyl)-3-cephem-4-carboxylic acids and derivatives” (priority 1977, dated 1978)
Values after ≈ are worked out from the molar mass of the structure shown.

How the values were obtained:
P. inconstans = experiment: MIC by Steers' agar dilution method; settings: Providencia alcalifaciens
Kl. pneumoniae = experiment: MIC by Steers' agar dilution method; assay type: cell-based; settings: Klebsiella pneumoniae
Klebsiella sp. = experiment: MIC by Steers' agar dilution method
D. pneumoniae = experiment: MIC by Steers' agar dilution method
[1] = system: P. mirabilis A9900 (Pm-2); experiment: Standard experimental infection (single sc treatment); settings: for No. of survivors/No. tested: Run C-810, 1×10^3 LD50, single sc
Sal. enteritidis = experiment: MIC by Steers' agar dilution method; settings: Salmonella enterica
S. paratyphi = experiment: MIC by Steers' agar dilution method; settings: Salmonella enterica
Enterob. cloacae = experiment: MIC by Steers' agar dilution method
[2] = system: E. cloacae A20464 (El-19); experiment: Standard experimental infection in mice; assay type: in vivo; settings: Run C-811
Shig. dysenteriae = experiment: MIC by Steers' agar dilution method; settings: Shigella dysenteriae, MHA
Citrobacter sp. = experiment: MIC by Steers' agar dilution method

SMILES: Cn1nnnc1SCC1=C(C(=O)O)N2C(=O)[C@@H](NC(=O)[C@H](O)c3ccccc3)[C@H]2SC1 [Cefamandole, cefamandole, reference compound]
- MIC (P. inconstans): 0.8 µg/mL (≈ 1.73 µM)
- MIC (Kl. pneumoniae; A9678, MHA, Table 1): 3.1 µg/mL (≈ 6.7 µM)
- MIC (Kl. pneumoniae; A9867, MHA, Table 1): 0.8 µg/mL (≈ 1.73 µM)
- MIC (Kl. pneumoniae; A9977, MHA, Table 1): 0.2 µg/mL (≈ 0.432 µM)
- MIC (Kl. pneumoniae; A15130, MHA, Table 1): 0.8 µg/mL (≈ 1.73 µM)
- MIC (Kl. pneumoniae; Kp-1 D11, MHA, Table 3): 0.8 µg/mL (≈ 1.73 µM)
- MIC (Kl. pneumoniae; Kp-2 A9678, MHA, Table 3): 1.6 µg/mL (≈ 3.46 µM)
- MIC (Kl. pneumoniae; Kp-3 A9977, HIA, Table 4): 0.8 µg/mL (≈ 1.73 µM)
- MIC (Kl. pneumoniae; Kp-3 A9977, MHA, Table 3): 0.8 µg/mL (≈ 1.73 µM)
- MIC (Kl. pneumoniae; Kp-3 A9977, MHA, Table 4): 0.8 µg/mL (≈ 1.73 µM)
- MIC (Kl. pneumoniae; Kp-3 A9977, NA, Table 4): 0.4 µg/mL (≈ 0.865 µM)
- MIC (Kl. pneumoniae; Kp-4 A15130, HIA, Table 4): 0.8 µg/mL (≈ 1.73 µM)
- MIC (Kl. pneumoniae; Kp-4 A15130, MHA, Table 3): 0.8 µg/mL (≈ 1.73 µM)
- MIC (Kl. pneumoniae; Kp-4 A15130, MHA, Table 4): 0.8 µg/mL (≈ 1.73 µM)
- MIC (Kl. pneumoniae; Kp-4 A15130, NA, Table 4): 0.8 µg/mL (≈ 1.73 µM)
- MIC (Kl. pneumoniae; Kp-7 A9867, MHA, Table 3): 0.8 µg/mL (≈ 1.73 µM)
- MIC (Kl. pneumoniae; Kp-8 A20680, MHA, Table 3): 12.5 µg/mL (≈ 27 µM)
- MIC (Kl. pneumoniae; Kp-9 A20636, MHA, Table 3): 12.5 µg/mL (≈ 27 µM)
- MIC (Kl. pneumoniae; Kp-10 A20328, MHA, Table 3): 3.1 µg/mL (≈ 6.7 µM)
- MIC (Kl. pneumoniae; Kp-11 A20330, MHA, Table 3): 12.5 µg/mL (≈ 27 µM)
- MIC (Kl. pneumoniae; Kp-12 A21228, MHA, Table 3): 6.3 µg/mL (≈ 13.6 µM)
- MIC (Kl. pneumoniae; strain not named (1st of 4), MHA, Example 10): 3.1 µg/mL (≈ 6.7 µM)
- MIC (Kl. pneumoniae; strain not named (2nd of 4), MHA, Example 10): 0.8 µg/mL (≈ 1.73 µM)
- MIC (Kl. pneumoniae; strain not named (3rd of 4), MHA, Example 10): 0.8 µg/mL (≈ 1.73 µM)
- MIC (Kl. pneumoniae; strain not named (4th of 4), MHA, Example 10): 0.8 µg/mL (≈ 1.73 µM)
- MIC (Klebsiella sp.; Kx-2 A9662, MHA, Table 3): 1.6 µg/mL (≈ 3.46 µM)
- MIC (Klebsiella sp.; Kx-3 A20346 (β-lactamase), HIA, Table 4): 0.4 µg/mL (≈ 0.865 µM)
- MIC (Klebsiella sp.; Kx-3 A20346 (β-lactamase), MHA, Table 4): 0.4 µg/mL (≈ 0.865 µM)
- MIC (Klebsiella sp.; Kx-3 A20346 (β-lactamase), NA, Table 4): 0.4 µg/mL (≈ 0.865 µM)
- MIC (Klebsiella sp.; Kx-3 A20346, MHA, Table 3): 0.8 µg/mL (≈ 1.73 µM)
- MIC (D. pneumoniae; Dp-2 Type I Neufeld, MHA, Table 2): 0.2 µg/mL (≈ 0.432 µM)
- MIC (D. pneumoniae; Dp-3 Type III, MHA, Table 2): 0.2 µg/mL (≈ 0.432 µM)
- MIC (D. pneumoniae; Dp-4 A9585, MHA, Table 2): 0.2 µg/mL (≈ 0.432 µM)
- MIC (D. pneumoniae; Dp-5 A15069, MHA, Table 2): 0.2 µg/mL (≈ 0.432 µM)
- MIC (D. pneumoniae; Dp-6 A20167, MHA, Table 2): 0.2 µg/mL (≈ 0.432 µM)
- MIC (D. pneumoniae; Dp-7 A20759, MHA, Table 2): 0.2 µg/mL (≈ 0.432 µM)
- MIC (D. pneumoniae; Dp-8 A20769, MHA, Table 2): 0.2 µg/mL (≈ 0.432 µM)
- MIC (D. pneumoniae; Dp-9 A20770, MHA, Table 2): 0.2 µg/mL (≈ 0.432 µM)
- MIC (D. pneumoniae; Streptococcus pneumoniae): 0.2 µg/mL (≈ 0.432 µM)
- ED50 ([1]; Proteus mirabilis, in Mus musculus, sc, read-out: PD50): 50 mg/kg
- No. of survivors/No. tested ([1]; 0.2 mg./kg.): 0/5
- No. of survivors/No. tested ([1]; 0.8 mg./kg.): 0/5
- No. of survivors/No. tested ([1]; 3.1 mg./kg.): 0/5
- No. of survivors/No. tested ([1]; 12.5 mg./kg.): 1/5
- No. of survivors/No. tested ([1]; 50 mg./kg.): 2/5
- MIC (Sal. enteritidis; A9531, MHA, Table 1): 0.1 µg/mL (≈ 0.216 µM)
- MIC (Sal. enteritidis; MHA, Example 10): 0.05 µg/mL (≈ 0.108 µM)
- MIC (Sal. enteritidis; Se-1 A9531, MHA, Table 3): 0.2 µg/mL (≈ 0.432 µM)
- MIC (S. paratyphi): 0.2 µg/mL (≈ 0.432 µM)
- MIC (Enterob. cloacae; A9656, MHA, Table 1): 3.1 µg/mL (≈ 6.7 µM)
- MIC (Enterob. cloacae; El-1 A9656, HIA, Table 4): 3.1 µg/mL (≈ 6.7 µM)
- MIC (Enterob. cloacae; El-1 A9656, MHA, Table 3): 3.1 µg/mL (≈ 6.7 µM)
- MIC (Enterob. cloacae; El-1 A9656, MHA, Table 4): 3.1 µg/mL (≈ 6.7 µM)
- MIC (Enterob. cloacae; El-1 A9656, NA, Table 4): 6.3 µg/mL (≈ 13.6 µM)
- MIC (Enterob. cloacae; El-2 A20364 (β-lactamase), HIA, Table 4): 100 µg/mL (≈ 216 µM)
- MIC (Enterob. cloacae; El-2 A20364 (β-lactamase), MHA, Table 4): 50 µg/mL (≈ 108 µM)
- MIC (Enterob. cloacae; El-2 A20364 (β-lactamase), NA, Table 4): 6.3 µg/mL (≈ 13.6 µM)
- MIC (Enterob. cloacae; El-2 A20364, MHA, Table 3): 3.1 µg/mL (≈ 6.7 µM)
- MIC (Enterob. cloacae; El-4 A20650, MHA, Table 3): 1.6 µg/mL (≈ 3.46 µM)
- MIC (Enterob. cloacae; El-6 A9657, MHA, Table 3): 0.8 µg/mL (≈ 1.73 µM)
- MIC (Enterob. cloacae; El-7 A9659, MHA, Table 3): 0.8 µg/mL (≈ 1.73 µM)
- MIC (Enterob. cloacae; El-8 A9655, MHA, Table 3): 1.6 µg/mL (≈ 3.46 µM)
- MIC (Enterob. cloacae; El-9 A20021, MHA, Table 3): 100 µg/mL (≈ 216 µM)
- MIC (Enterob. cloacae; El-11 A20344 (β-lactamase), HIA, Table 4): > 100 µg/mL
- MIC (Enterob. cloacae; El-11 A20344 (β-lactamase), MHA, Table 4): > 100 µg/mL
- MIC (Enterob. cloacae; El-11 A20344 (β-lactamase), NA, Table 4): > 100 µg/mL
- MIC (Enterob. cloacae; El-11 A20344, MHA, Table 3): > 100 µg/mL
- MIC (Enterob. cloacae; El-12 A21006, MHA, Table 3): 3.1 µg/mL (≈ 6.7 µM)
- MIC (Enterob. cloacae; El-14 A20953, MHA, Table 3): 3.1 µg/mL (≈ 6.7 µM)
- MIC (Enterob. cloacae; MHA, Example 10): 3.1 µg/mL (≈ 6.7 µM)
- ED50 ([2]; Enterobacter cloacae, read-out: PD50): 0.8 mg/kg
- No. of survivors/No. tested ([2]; 0.4 mg./kg.): 1/5
- No. of survivors/No. tested ([2]; 1.6 mg./kg.): 4/5
- No. of survivors/No. tested ([2]; 6.3 mg./kg.): 5/5
- No. of survivors/No. tested ([2]; 100 mg./kg.): 5/5
- MIC (Shig. dysenteriae; Example 10): 0.1 µg/mL (≈ 0.216 µM)
- MIC (Shig. dysenteriae; Table 1): 0.1 µg/mL (≈ 0.216 µM)
- MIC (Shig. dysenteriae; Sd-1, Table 3): 0.2 µg/mL (≈ 0.432 µM)
- MIC (Citrobacter sp.; Citrobacter): 1.6 µg/mL (≈ 3.46 µM)
- MIC (Citrobacter sp.; Cx-2 A20694, MHA, Table 3): 1.6 µg/mL (≈ 3.46 µM)
- MIC (Citrobacter sp.; Cx-3 A20695, MHA, Table 3): 1.6 µg/mL (≈ 3.46 µM)
